Patent US6103709A (priority 1998, dated 2000)
Entries after “also recorded” stand apart in the source; their conditions may differ.

Columns and labels:
keratinocytes = conditions: cell cultures of keratinocytes; cited from earlier work
VDRnuc = test: Genomic response (summary classification); conditions: Yes/No, Tables 1 and 6
Text: (§1) Table 6 identifies biological properties, such as genomic response, rapid response, agonist or antagonist function, binding of the analog to the vitamin binding protein (expressed as RCI), binding to the nuclear 1α,25(OH)2 D3 receptor (expressed as RCI) rapid response (expressed as % transcaltachia the rapid hormonal stimulation of intestinal calcium absorption) the classic vitamin D responses such as intestinal Ca^2+ absorption (ICA) and bone Ca^2+ mobilizing activity (BCM) determined in vivo in a vitamin D-deficient chick, and cell differentiation (expressed as % ED50), an assessment of the ability to promote the nuclear response of cell differentiation.

VDRmem = test: Rapid response (summary classification); conditions: Yes/No, Tables 1 and 6
Text: as §1

[1] = system: chloride channels in ROS 17/2.8 cells
Method: In each case, at least a 3-min period was allowed after the addition of the analog to the bath for currents to reach a stable amplitude value. […] Anion currents were isolated from inward Ba^2+ currents after blockade of Ca^2+ channels with 100 μM Cd^2+.

[2] = system: vitamin D-deficient chick; test: Bone Ca2+ mobilizing activity (BCM) in vitamin D-deficient chick; type: in vivo; conditions: i.m.
Method: The bone calcium mobilizing (BCM) assay is also conducted in the vitamin D-deficient chick. The BCM assay determines the relative ability of the tested analog to mobilize bone calcium. The natural hormone 1α,25(OH)2 D3 is very potent in the BCM assay. For example, when 1α,25(OH)2 D3 in inappropriate amounts are used as a drug in human patients, the patient may become hypercalcemic and eventually hypercalciuria with nephrolithiasis and renal failure may develop. The BCM assay was used to determine the relative activity of the analogs of the invention to stimulate bone Ca^2+ mobilization.
(§2) Results of the testing of the analogs of the invention in vivo by the ICA and IBM assays are shown in FIG. 9 which illustrates the capability of analogs LO, EV and HR to stimulate intestinal Ca^2+ absorption (ICA) and bone Ca^2+ mobilizing activity (BCM). In this study, the analogs of 1α,25(OH) were given i.m. to vitamin D-deficient chicks 12 hours before the assay began. The activity produced by 100 pmol of 1α,25(OH)2 D3 was set to be 100% for both ICA and BCM. The dose of the analogs required to achieve a biological response for either ICA or BCM equivalent to the 100 pmol dose of 1α,25(OH)2 D3 was calculated and converted to a percentage. Results are expressed as mean +SE of groups of seven chicks. Each assay included a negative control (-D), that is no vitamin D was present, and a positive control, where vitamin D3 (+D3) was present in 3.25 nmol. […] 1α,25(OH)2 D3 and analogs LO [14α,15α-methano-1α,25(OH)2 D3 ], EV [22-(m(dimethylhydroxymethyl)phenyl)-23,24,25,26,27-pentanor-1α-OH-D3 ] and HR [(22R)-1,25(OH)2 -22,23-diene-D3 ] were administered in 0.0065, 0.065, 0.65 and 6.5 nmol as shown.
(§3) In Vivo Assays of Intestinal Calcium Absorption and Bone Calcium Mobilization
(§4) This example describes assays used for determination of analogs biological activity in intestinal calcium absorption (ICA) and bone calcium mobilization (BCM) assays.
(§5) ICA and BCM were measured in vivo in the vitamin D-deficient chick model system according to Biochem. Pharmacol., 18: 2347 (1969).
(§6) Twelve hours before assay, the chickens, which had been placed on a zero-calcium diet 48 h before assay, were injected intramuscularly with the vitamin metabolite 1α,25(OH)2 D3 or analog (1-10,000 pmoles) dissolved in 0.1 mL of ethanol/1,2-propanediol (1:1, v/v). At the time of assay, 4.0 mg of ^40 Ca^2+ +5 μCi of ^45 Ca^2+ (New England Nuclear) were placed in the duodenum of the birds lightly anesthetized with ether. After 30 min, the birds were decapitated and the blood was collected.
BCM activity was estimated from the increase of total serum calcium concentration, as determined by atomic absorption spectrophotometry.

[3] = system: vitamin D-deficient chick; test: Intestinal Ca2+ absorption (ICA) in vitamin D-deficient chick; type: in vivo; conditions: i.m.
Method: A primary fundamental physiological property of vitamin D and particularly 1α,25(OH)2 D3 is its ability to stimulate the intestinal absorption of calcium and facilitate the availability of dietary calcium to the organism. Intestinal absorption of the calcium is measured by the intestinal calcium absorption (ICA) assay, developed in the model of vitamin-D deficient chicks. The ICA assay was used to determine the relative capability of the tested analog to stimulate intestinal Ca^2+ absorption.
as §2, §3, §4, §5, §6
The radioactivity content, which is a measure of ICA, of 0.2 mL of serum was measured in a liquid scintillation counter (Beckman LS8000) to determine the amount of ^45 Ca^2+ absorbed.

rapid responses (VDRmem) = test: Antagonist function (summary classification); conditions: Yes/No, Tables 1 and 6
Text: as §1

[4] = system: MAP-kinase p42^mapk in NB4 cells; test: MAP-kinase activation (p42mapk phosphorylation) in NB4 cells; type: cell-based, human; conditions: 1 or 5 minutes exposure
Method: In order to determine whether MAP-kinase phosphorylation is specific and is altered by 1α,25(OH)2 D3, the time-dependent effects of 1α,25(OH)2 D3 on p42^mapk phosphorylation was examined using human acute promyelocytic leukemia cells (NB4). In this study, the NB4 cells, cultured in 10% charcoal-stripped fetal calf serum (FCS) medium, were treated with 1α,25(OH)2 D3 at 10^-8 M for various time periods. Cells were then extracted and the phosphorylated MAP-kinase was immunoprecipitated with anti-phosphotyrosine antibody and further analyzed by Western blot using the antibodies against p42^mapk.
The lysate was further processed for anti-phosphotyrosine immunoprecipitation. […] After transferring the proteins to the PVDF membrane, the membrane was further incubated with primary anti-p42^mapk antibodies that were (+) or were not (-) pre-exposed to MAP-kinase peptide.
This example describes assays used for measurement of MAP-kinase activity in NB4 cells.
Cell culture of NB4 cells
The cell line is characterized by a translocation involving chromosomes 15 and 17, which is typical of the classical form of APL-M3 in the French-American-British [FAB] classification. NB4 cells were cultured in DMEM/F12 medium with 10% FCS at 5% CO2 balanced air and were routinely passaged as suspension cultures and only passages 8 to 20 were used for each assay.
Immunoprecipitation of Tyrosine-Phosphorylated Proteins
NB4 cells were cultured in 60-mm diameter dishes and treated with 1,25(OH)2 D3 or analogs in 4 ml of DMEM/F12 containing 10% charcoal-stripped FCS.
Insoluble material was removed in a microcentrifuge at 14,000 rpm for 10 min. Protein concentration was determined with a protein assay kit (Bio-Rad Lab, Hercules, Calif.). For immunoprecipitation, the supernatant was incubated with bead-conjugated monoclonal anti-phosphotyrosine antibody overnight at 4° C. The immunoprecipitates containing the tyrosine-phosphorylated proteins were washed four times with freshly-prepared RIPA buffer and further eluted with 2× Laemmli gel buffer.
At this point, the samples were either stored at -20° C. for further use or processed via Western blots. Equal loading of MAP-kinase protein was determined by running the Western blots using polyclonal anti-p42^mapk antibody. For this purpose, samples were aliquoted from each cell extract before immunoprecipitation.
SDS Gel Electrophoresis and Western blot
The membrane was further immunoblotted using a rabbit anti-p42^mapk polyclonal antibody overnight at 4° C. followed by incubation with secondary horseradish peroxidase-conjugated mouse anti-rabbit antibody for 1 hr at 25° C. The phosphorylated MAP-kinase bands were then visualized by enhanced chemiluminescence (ECL). A Ultrascan LX Laser Densitometer (LKB, Bromma, Sweden) scanned the density of the immuno-phosphoprotein bands. The results were normalized by protein loading and further plotted as percent of control of the band density.

[5] = relative to 100 pmol 1α,25(OH)2 D3 = 100%, 12 h before assay

## C=C1/C(=C\C=C2/CCC[C@]3(C)[C@@H]([C@H](C)CCCC(C)(C)O)CC[C@@H]23)C[C@@H](O)C[C@@H]1O [Analog C, 1α,25-dihydroxyvitamin D3, reference compound]
keratinocytes
  production of keratin, involucrin and loricrin: stimulate the production of keratin, involucrin and loricrin
VDRnuc
  Genomic Response: Yes
VDRmem
  Rapid Response: Yes
[1]; 0.05-50 nM, alone, listed as 1α,25(OH)2 D3
  opening of chloride channels (in words): concentration-dependent effect on the promotion of anion currents; also recorded: agonist which opens chloride channels
[1]; 1α,25(OH)2 D3 alone, 14 out of 15 cells
  cells responding with promotion of anion currents: 93%
[2]; [5]
  Classic Vit D Responses BCM: 100%
[2]; vitamin D-deficient chick
  BCM (in words): most potent stimulator of ICA and BCM
[3]; [5]
  Classic Vit D Responses ICA: 100%
[3]; vitamin D-deficient chick
  ICA (in words): most potent stimulator of ICA and BCM
Rapid responses (VDRmem)
  Antagonist: No
[4]
  phosphorylation / activation of MAP-kinase p42mapk (in words): significantly increased phosphorylation of p42^mapk in NB4 cells
